Assay results taken from US10689367B2, “Triazole pyridyl compounds as agonists of the APJ receptor” (AMGEN INC., priority 2016, dated 2020).

What follows are compounds tested against human APJ receptor (Homo sapiens (Human), UniProt P35414) (assay: [35S]GTPγS binding assay on membranes from CHO cells stably expressing human APJ receptor). Details: membranes of CHO cells stably expressing human APJ receptor, read-out: Activity hAPJ SPA EC50 IP.
human APJ receptor, sequence (P35414 whole entry): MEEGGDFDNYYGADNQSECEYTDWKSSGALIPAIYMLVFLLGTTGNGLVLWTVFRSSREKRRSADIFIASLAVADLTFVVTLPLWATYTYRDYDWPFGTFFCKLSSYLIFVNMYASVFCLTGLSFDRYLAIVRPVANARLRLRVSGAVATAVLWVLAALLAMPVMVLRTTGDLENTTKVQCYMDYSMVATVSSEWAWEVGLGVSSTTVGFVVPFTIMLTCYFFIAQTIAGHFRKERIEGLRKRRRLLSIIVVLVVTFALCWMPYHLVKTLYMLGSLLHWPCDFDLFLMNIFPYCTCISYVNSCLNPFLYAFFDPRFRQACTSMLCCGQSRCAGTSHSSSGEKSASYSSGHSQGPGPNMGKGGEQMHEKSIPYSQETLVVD
Assay type: biochemical
Protocol: The human APJ receptor was cloned by polymerase chain reaction and the gene encoding the receptor was subcloned in pFLAG-CMV™-3 expression vector (Sigma, Saint Louis, Mo. USA) in-house at Amgen. A GTPγS binding assay was performed on membranes prepared from CHO cells stably expressing human APJ receptor. The optimum experimental conditions for the concentrations of GDP, MgCl2, and NaCl in the assay buffer were initially determined. […] Incubation was at RT for 90 min and the microplate was read using a ViewLux™ ultra HTS Microplate Imager (PerkinElmer, Inc.). All the results presented are means of several independent experiments and analyzed by non-linear regression methods using the commercially available program Prism (GraphPad, San Diego, Calif.) providing the EC50 values detailed in Table 27.
Compound `COCC(COC)n1c(NS(=O)(=O)[C@@H](C)[C@H](C)c2ncc(Cl)cn2)nnc1-c1cccnc1` [Example 19.0, (2S,3R)-3-(5-chloro-2-pyrimidinyl)-N-(4-(1,3dimethoxy-2-propanyl)-5-(3-pyridinyl)-4H-1,2,4-triazol-3-yl)-2-butanesulfonamide] has an EC50 of 26 nM. Compound `COc1cccc(-c2nnc(NS(=O)(=O)[C@@H](C)[C@H](OC)c3ncc(Cl)cn3)n2CC2CCOC2)n1` (single isomer, unassigned) [Example 285.0, (1R,2S)-1-(5-chloropyrimidin-2-yl)-1-methoxy-N-(5-(6-methoxypyridin-2-yl)-4-(((R)-tetrahydrofuran-3-yl)methyl)-4H-1,2,4-triazol-3-yl)propane-2-sulfonamide or (1R,2S)-1-(5-chloropyrimidin-2-yl)-1-methoxy-N-(5-(6-methoxypyridin-2-yl)-4-(((S)-tetrahydrofuran-3-yl)methyl)-4H-1,2,4-triazol-3-yl)propane-2-sulfonamide] has an EC50 of 65 nM. Work on `COc1cccc(-c2nnc(NS(=O)(=O)[C@@H](C)[C@@H](OC(C)C)c3ncc(C)cn3)n2[C@@H](C)c2ccno2)n1` (single isomer, unassigned) [Example 216.0, (1S,2S)-N-(5-(6-methoxy-2-pyridinyl)-4-((1S)-1-(1,2-oxazol-5-yl)ethyl)-4H-1,2,4-triazol-3-yl)-1-(5-methyl-2-pyrimidinyl)-1-(2-propanyloxy)-2-propanesulfonamide or (1S,2S)-N-(5-(6-methoxy-2-pyridinyl)-4-((1R)-1-(1,2-oxazol-5-yl)ethyl)-4H-1,2,4-triazol-3-yl)-1-(5-methyl-2-pyrimidinyl)-1-(2-propanyloxy)-2-propanesulfonamide] yielded an EC50 of 2.2 nM. Compound `COc1cccc(-c2nnc(NS(=O)(=O)[C@@H](C)[C@@H](OC(C)C)c3ncc(C)cn3)n2[C@H](C)[C@@H]2CCCCO2)n1` (single isomer, unassigned) [Example 322.0] has an EC50 of 1.2 nM. Work on `COc1cccc(-c2nnc(NS(=O)(=O)[C@@H](C)[C@H](C)c3ncc(Cl)cn3)n2Cc2cc(C)on2)n1` [Example 272.0, (2S,3R)-3-(5-chloropyrimidin-2-yl)-N-(5-(6-methoxypyridin-2-yl)-4-((5-methylisoxazol-3-yl)methyl)-4H-1,2,4-triazol-3-yl)butane-2-sulfonamide] yielded an EC50 of 12 nM. In the case of `COc1cccc(-c2nnc(NS(=O)(=O)[C@@H](C)[C@H](OC)c3ncc(Cl)cn3)n2C[C@H]2CCC(C)(C)O2)n1` (single isomer, unassigned) [Example 289.0, (1R,2S)-1-(5-chloropyrimidin-2-yl)-N-(4-(((R)-5,5-dimethyltetrahydrofuran-2-yl)methyl)-5-(6-methoxyl)yridin-2-yl)-4H-1,2,4-triazol-3-yl)-1-methoxypropane-2-sulfonamide or (1R,2S)-1-(5-chloropyrimidin-2-yl)-N-(4-(((S)-5,5-dimethyltetrahydrofuran-2-yl)methyl)-5-(6-methoxypyridin-2-yl)-4H-1,2,4-triazol-3-yl)-1-methoxypropane-2-sulfonamide], the EC50 is reported as 82 nM. Work on `COCC1(n2c(NS(=O)(=O)[C@@H](C)[C@@H](OC(C)C)c3ncc(C)cn3)nnc2-c2cccnc2)CC1` [Example 62.0] yielded an EC50 of 27 nM. `COCC(COC)n1c(NS(=O)(=O)[C@@H](C)[C@H](OC)c2ncc(Cl)cn2)nnc1-c1cncc(C)c1` [Example 15.0, (1R,2S)-1-(5-chloro-2-pyrimidinyl)-N-(4-(1,3-dimethoxy-2-propanyl)-5-(5-methyl-3-pyridinyl)-4H-1,2,4-triazol-3-yl)-1-methoxy-2-propanesulfonamiide] was tested, and the EC50 was 30 nM. Work on `COc1cccc(-c2nnc(NS(=O)(=O)[C@@H](C)[C@H](OC)c3ncc(Cl)cn3)n2[C@@H](C)c2c(C)noc2C)n1` (racemic) [Example 310.0, (1R,2S)-1-(5-chloropyrimidin-2-yl)-N-(4-((R)-1-(3,5-dimethylisoxazol-4-yl)ethyl)-5-(6-methoxypyridin-2-yl)-4H-1,2,4-triazol-3-yl)-1-methoxypropane-2-sulfonamide or (1R,2S)-1-(5-chloropyrimidin-2-yl)-N-(4-((S)-1-(3,5-dimethylisoxazol-4-yl)ethyl)-5-(6-methoxypyridin-2-yl)-4H-1,2,4-triazol-3-yl)-1-methoxypropane-2-sulfonamide] yielded an EC50 of 7.4 nM. `COc1cccc(-c2nnc(NS(=O)(=O)[C@@H](C)[C@H](OC)c3ncc(Cl)cn3)n2C[C@H]2CCCCO2)n1` (racemic) [Example 287.0, (1R,2S)-1-(5-chloropyrimidin-2-yl)-1-methoxy-N-(5-(6-methoxypyridin-2-yl)-4-(((R)-tetrahydro-2H-pyran-2-yl)methyl)-4H-1,2,4-triazol-3-yl)propane-2-sulfonamide or (1R,2S)-1-(5-chloropyrimidin-2-yl)-1-methoxy-N-(5-(6-methoxypyridin-2-yl)-4-(((S)-tetrahydro-2H-pyran-2-yl)methyl)-4H-1,2,4-triazol-3-yl)propane-2-sulfonamide] showed an EC50 of 5.9 nM. Work on `CO[C@H](c1ncc(Cl)cn1)[C@H](C)S(=O)(=O)Nc1nnc(-c2cncc(C)c2)n1Cc1ccon1` [Example 262.0, (1R,2S)-1-(5-chloropyrimidin-2-yl)-N-(4-(isoxazol-3-ylmethyl)-5-(5-methylpyridin-3-yl)-4H-1,2,4-triazol-3-yl)-1-methoxypropane-2-sulfonamide] yielded an EC50 of 200 nM. Compound `COCC(COC)n1c(NS(=O)(=O)[C@@H](C)[C@H](OC)c2ncc(Cl)cn2)nnc1-c1ccccn1` [Example 14.0, (1R,2S)-1-(5-chloro-2-pyrimidinyl)-N-(4-(1,3-dimethoxy-2-propanyl)-5-(2-pyridinyl)-4H-1,2,4-triazol-3-yl)-1-methoxy-2-propanesulfonamiide] has an EC50 of 6.4 nM. `COc1cccc(-c2nnc(NS(=O)(=O)[C@@H](C)[C@H](OC)c3cnc(C)cn3)n2Cc2cnoc2)n1` [Example 188.0, (1R,2S)-N-(4-(isoxazol-4-ylmethyl)-5-(6-methoxypyridin-2-yl)-4H-1,2,4-triazol-3-yl)-1-methoxy-1-(5-methylpyrazin-2-yl)propane-2-sulfonamide] was tested, and the EC50 was 1400 nM. `COCC(COC)n1c(NS(=O)(=O)[C@@H](C)[C@@H](OC(C)C)c2ncc(C)cn2)nnc1-c1cccc(OC)n1` [Example 104.0] was tested, and the EC50 was 0.39 nM. `COc1cccc(-c2nnc(NS(=O)(=O)[C@@H](C)[C@H](OC)c3ncc(Cl)cn3)n2[C@@H]2CC23CC3)n1` (single isomer, unassigned) [Example 90.0] was tested, and the EC50 was 6.2 nM. With `COc1cccc(-c2nnc(NS(=O)(=O)[C@@H](C)[C@H](OC)c3ncc(Cl)cn3)n2CCC#N)n1` [Example 44.0] the EC50 was 4.9 nM. In the case of `CC[C@@H](c1c(C)noc1C)n1c(NS(=O)(=O)[C@@H](C)[C@@H](OC(C)C)c2ncc(C)cn2)nnc1-c1cccc(OC)n1` (single isomer, unassigned) [Example 221.0, (1S,2S)-N-(4-((1R)-1-(3,5-dimethyl-1,2-oxazol-4-yl)propyl)-5-(6-methoxy-2-pyridinyl)-4H-1,2,4-triazol-3-yl)-1-(5-methyl-2-pyrimidinyl)-1-(2-propanyloxy)-2-propanesulfonamide or (1S,2S)-N-(4-((1S)-1-(3,5-dimethyl-1,2-oxazol-4-yl)propyl)-5-(6-methoxy-2-pyridinyl)-4H-1,2,4-triazol-3-yl)-1-(5-methyl-2-pyrimidinyl)-1-(2-propanyloxy)-2-propanesulfonamide], the EC50 is reported as 14 nM. `COc1cccc(-c2nnc(NS(=O)(=O)[C@@H](C)[C@H](OC)c3ncc(Cl)cn3)n2C[C@@H]2CCCOC2)n1` (racemic) [Example 311.0, (1R,2S)-1-(5-chloropyrimidin-2-yl)-1-methoxy-N-(5-(6-methoxypyridin-2-yl)-4-(((R)-tetrahydro-2H-pyran-3-yl)methyl)-4H-1,2,4-triazol-3-yl)propane-2-sulfonamide or (1R,2S)-1-(5-chloropyrimidin-2-yl)-1-methoxy-N-(5-(6-methoxypyridin-2-yl)-4-(((S)-tetrahydro-2H-pyran-3-yl)methyl)-4H-1,2,4-triazol-3-yl)propane-2-sulfonamide] gave an EC50 of 33 nM. With `COc1cnc([C@@H](C)[C@H](C)S(=O)(=O)Nc2nnc(-c3cccc(OC)n3)n2C2CC2)nc1` [Example 119.0] the EC50 was 28 nM. For `CC[C@H]([C@@H]1CCCCO1)n1c(NS(=O)(=O)[C@@H](C)[C@H](OC)c2ncc(C)cn2)nnc1-c1cccc(OC)n1` (single isomer, unassigned) [Example 329.0], the EC50 was 1.4 nM. Compound `CO[C@H](c1ncc(Cl)cn1)[C@H](C)S(=O)(=O)Nc1nnc(-c2ccccn2)n1C1(C2CC2)CC1` [Example 108.0] has an EC50 of 5.9 nM. Work on `COc1cccc(-c2nnc(NS(=O)(=O)[C@@H](C)[C@H](C)c3ncc(Cl)cn3)n2[C@@H](C)c2ncn(C)n2)n1` (single isomer, unassigned) [Example 237.0, (2S,3R)-3-(5-chloro-2-pyrimidinyl)-N-(5-(6-methoxy-2-pyridinyl)-4-((1S)-1-(1-methyl-1H-1,2,4-triazol-3-yl)ethyl)-4H-1,2,4-triazol-3-yl)-2-butanesulfonamide or (2S,3R)-3-(5-chloro-2-pyrimidinyl)-N-(5-(6-methoxy-2-pyridinyl)-4-((1R)-1-(1-methyl-1H-1,2,4-triazol-3-yl)ethyl)-4H-1,2,4-triazol-3-yl)-2-butanesulfonamide] yielded an EC50 of 130 nM. Compound `COC[C@H](C)n1c(NS(=O)(=O)[C@@H](C)[C@H](C)c2ncc(Cl)cn2)nnc1-c1cccc(OC)n1` [Example 174.0, (2S,3R)-3-(5-chloro-2-pyrimidinyl)-N-(4-((2S)-1-methoxy-2-propanyl)-5-(6-methoxy-2-pyridinyl)-4H-1,2,4-triazol-3-yl)-2-butanesulfonamide] has an EC50 of 3.3 nM.
